Reference: US20250019350A1, “SYNTHESIS OF THE PROSTATE SPECIFIC MEMBRANE ANTIGEN (PSMA) RADIOLABELED INHIBITOR [18F]DCFPYL” (Progenics Pharmaceuticals, Inc, priority 2023, published 2025)
Where “and” joins values, the source holds several entries; their conditions need not be identical. Equal values may be shown once.

Test: Radiolysis / stability of [18F]DCFPyL over time by HPLC with radiodetection (RCP, free 18F, radioactive impurities)
Assay type: physicochemical
Description: Those of ordinary skill in the art will be aware of techniques and systems for determining the radiochemical purity of a composition. In some cases, the radiochemical purity is determined using an HPLC associated with a radio-detector. Generally, the radiochemical purity is determined under ambient conditions (e.g., ambient temperature, ambient humidity, ambient light, etc.), such as in samples stored under such conditions.
Stability was assessed using reverse phase HPLC on a C18 column with a phosphate buffer/acetonitrile gradient mobile phase, and the elution profile was monitored using both UV and radiochemical detectors. Samples were analyzed either by direct injection onto the HPLC, dilution and injection or including the addition of tetraethylammonium fluoride (TEAF) into the sample before injection.
Known amounts of free ^18F either alone or spiked with TEAF were injected onto the analytic column and the eluent from the column collected over the course of a chromatogram and assaying the radioactivity using a Capintec. […] Adding TEAF into the analytic samples was incorporated into subsequent studies examining potential radiolysis of [^18F]DCFPyL to overcome some of the limitations of free ^18F quantification.
Analytical HPLC method was used. The method employs UV detection at 264 nm for chemical impurities, and an Eckert & Ziegler model B-FC-1000 gamma detector for radiochemical assays.

[1] = 110 mCi/mL in 50 mg/mL pH 5.8 ascorbic acid, T = 3.0 h
[2] = 110 mCi/mL in 50 mg/mL pH 5.8 ascorbic acid, T = 3.5 h
[3] = 110 mCi/mL in 50 mg/mL pH 5.8 ascorbic acid, T = 4.0 h
[4] = 147 mCi/mL in 0.9% Sodium Chloride, USP, no ascorbic acid, T = 0 h
[5] = 147 mCi/mL in 0.9% Sodium Chloride, USP, no ascorbic acid, T = 0.5 h
[6] = 147 mCi/mL in 0.9% Sodium Chloride, USP, no ascorbic acid, T = 1.0 h
[7] = 147 mCi/mL in 0.9% Sodium Chloride, USP, no ascorbic acid, T = 1.5 h
[8] = 147 mCi/mL in 0.9% Sodium Chloride, USP, no ascorbic acid, T = 2.0 h
[9] = 147 mCi/mL in 0.9% Sodium Chloride, USP, no ascorbic acid, T = 2.5 h
[10] = 147 mCi/mL in 0.9% Sodium Chloride, USP, no ascorbic acid, T = 3.0 h
[11] = 147 mCi/mL in 0.9% Sodium Chloride, USP, no ascorbic acid, T = 3.5 h
[12] = 147 mCi/mL in 0.9% Sodium Chloride, USP, no ascorbic acid, T = 4.0 h
[13] = T = 0/1, 50 mg/mL ascorbic acid pH 5.8, 20% ethanol, 106.5 mCi/mL at EOS
[14] = T = 0, 0.5 mg/mL ascorbic acid pH 5.8, 20% ethanol, 105.8 mCi/mL at EOS
[15] = T = 0, 1 mg/mL ascorbic acid pH 5.8, 20% ethanol, 107.0 mCi/mL at EOS
[16] = T = 0, 5 mg/mL ascorbic acid pH 5.8, 20% ethanol, 99.0 mCi/mL at EOS
[17] = T = 0, 20 mg/mL sodium citrate, 20% ethanol, 104.8 mCi/mL at EOS, MPA = 0.25% of main peak
[18] = T = 0, 50 mg/mL ascorbic acid pH 5.8, 20% ethanol, 139.7 mCi/mL at EOS
[19] = T = 0 hr, 50 mg/mL ascorbic acid pH 5.8 in final product vial, 20% ethanol, 110 mCi/mL at EOS
[20] = T = 0 hr, 100 mg/mL ascorbic acid pH 2.0, 256 mCi/mL at EOS
[21] = T = 0 hr, 20% ethanol in saline, 52 mCi/mL at EOS
[22] = T = 0 hr, 20% ethanol in saline, 65 mCi/mL at EOS
[23] = T = 0 hr, 20% ethanol in saline, 85 mCi/mL at EOS
[24] = T = 0 hr, 100% ethanol, 325 mCi/mL at EOS
[25] = T = 0 hr, control without ascorbic acid, 36% ethanol in saline, 147 mCi/mL at EOS
[26] = T = 3, 50 mg/mL ascorbic acid pH 5.8, 20% ethanol, 106.5 mCi/mL at EOS
[27] = T = 4, 50 mg/mL ascorbic acid pH 5.8, 20% ethanol, 106.5 mCi/mL at EOS
[28] = T = 6, 50 mg/mL ascorbic acid pH 5.8, 20% ethanol, 106.5 mCi/mL at EOS

## O=C(O)CC[C@H](NC(=O)N[C@@H](CCCCNC(=O)c1ccc([18F])nc1)C(=O)O)C(=O)O [Lot 18F-DCFPyL, 2-(3-{1-carboxy-5-[(6-[18F]fluoro-pyridine-3-carbonyl)-amino]-pentyl}ureido)-pentanedioic acid]
50 mg/mL ascorbic acid pH 5.8, 20% ethanol, 111 mCi/mL at EOS
  free 18F accumulating over 4 hrs: 0.26%
100 mg/mL ascorbic acid pH 2.0, 256 mCi/mL at EOS
  free 18F accumulating over 4 hrs: 0.08%
110 mCi/mL in 50 mg/mL pH 5.8 ascorbic acid, T = 0 h
  18F-DCFPyL: 99.73 area %
110 mCi/mL in 50 mg/mL pH 5.8 ascorbic acid, T = 0.5 h
  18F-DCFPyL: 99.72 area %
110 mCi/mL in 50 mg/mL pH 5.8 ascorbic acid, T = 1.0 h
  18F-DCFPyL: 96.74 area %
110 mCi/mL in 50 mg/mL pH 5.8 ascorbic acid, T = 1.5 h
  18F-DCFPyL: 99.66 area %
110 mCi/mL in 50 mg/mL pH 5.8 ascorbic acid, T = 2.0 h
  18F-DCFPyL: 99.76 area %
110 mCi/mL in 50 mg/mL pH 5.8 ascorbic acid, T = 2.5 h
  18F-DCFPyL: 99.66 area %
[1]
  18F-DCFPyL: 99.30 area %
  Free 18F: 0.35 area %
[2]
  18F-DCFPyL: 99.46 area %
  Free 18F: 0.24 area %
[3]
  18F-DCFPyL: 99.43 area %
  Free 18F: 0.26 area %
[4]
  18F-DCFPyL: 94.17 area %
  Free 18F: 4.68 area %
[5]
  18F-DCFPyL: 90.65 area %
  Free 18F: 7.73 area %
[6]
  18F-DCFPyL: 90.71 area %
  Free 18F: 7.69 area %
[7]
  18F-DCFPyL: 89.59 area %
  Free 18F: 8.78 area %
[8]
  18F-DCFPyL: 89.50 area %
  Free 18F: 8.67 area %
[9]
  18F-DCFPyL: 88.79 area %
  Free 18F: 9.66 area %
[10]
  18F-DCFPyL: 88.94 area %
  Free 18F: 9.49 area %
[11]
  18F-DCFPyL: 88.90 area %
  Free 18F: 9.56 area %
[12]
  18F-DCFPyL: 89.06 area %
  Free 18F: 9.27 area %
256 mCi/mL in ethanol, ascorbic acid in process, T = 0 h
  Free 18F: 0.29 area %
256 mCi/mL in ethanol, ascorbic acid in process, T = 0.5 h
  Free 18F: 0.40 area %
256 mCi/mL in ethanol, ascorbic acid in process, T = 1.0 h
  Free 18F: 0.31 area %
256 mCi/mL in ethanol, ascorbic acid in process, T = 1.5 h
  Free 18F: 0.31 area %
256 mCi/mL in ethanol, ascorbic acid in process, T = 2.0 h
  Free 18F: 0.31 area %
256 mCi/mL in ethanol, ascorbic acid in process, T = 2.5 h
  Free 18F: 0.31 area %
256 mCi/mL in ethanol, ascorbic acid in process, T = 3.0 h
  Free 18F: 0.29 area %
256 mCi/mL in ethanol, ascorbic acid in process, T = 3.5 h
  Free 18F: 0.42 area %
256 mCi/mL in ethanol, ascorbic acid in process, T = 4.0 h
  Free 18F: 0.40 area %
256 mCi/mL in ethanol, 100 mg/mL pH 2.0 ascorbic acid in collection vial and HLB wash, T = 0 h
  18F-DCFPyL: 99.71 area %
256 mCi/mL in ethanol, 100 mg/mL pH 2.0 ascorbic acid in collection vial and HLB wash, T = 0.5 h
  18F-DCFPyL: 99.60 area %
256 mCi/mL in ethanol, 100 mg/mL pH 2.0 ascorbic acid in collection vial and HLB wash, T = 1.0 h
  18F-DCFPyL: 98.68 area %
256 mCi/mL in ethanol, 100 mg/mL pH 2.0 ascorbic acid in collection vial and HLB wash, T = 1.5 h
  18F-DCFPyL: 98.58 area %
256 mCi/mL in ethanol, 100 mg/mL pH 2.0 ascorbic acid in collection vial and HLB wash, T = 2.0 h
  18F-DCFPyL: 98.20 area %
256 mCi/mL in ethanol, 100 mg/mL pH 2.0 ascorbic acid in collection vial and HLB wash, T = 2.5 h
  18F-DCFPyL: 98.71 area %
256 mCi/mL in ethanol, 100 mg/mL pH 2.0 ascorbic acid in collection vial and HLB wash, T = 3.0 h
  18F-DCFPyL: 98.46 area %
256 mCi/mL in ethanol, 100 mg/mL pH 2.0 ascorbic acid in collection vial and HLB wash, T = 3.5 h
  18F-DCFPyL: 97.96 area %
256 mCi/mL in ethanol, 100 mg/mL pH 2.0 ascorbic acid in collection vial and HLB wash, T = 4.0 h
  18F-DCFPyL: 97.95 area %
4 hours, 5 mg/mL ascorbate pH 6 FPV prefill and 6 mg/mL pH 6 ascorbate as delivery solution
  RCP: 98%
4 hours, 10 mg/mL pH 6 ascorbate in collection vial and 5 mg/mL pH 6 ascorbic acid in final product vial
  RCP: 99%
10 hours, 3.3 mg/mL ascorbic acid in FPV, 10 mg/mL pH 2 in collection vial
  % RCP: 97%
10 hours, 5 mg/mL, pH 6 ascorbate in the final product
  RCP: 96%
10 hours, 5.6 mg/mL ascorbic acid in FPV, 10 mg/mL pH 2 in collection vial
  % RCP: 98%
10 hours, 7.8 mg/mL ascorbic acid in FPV, 10 mg/mL pH 2 in collection vial
  % RCP: 97%
10 hours, pH 2 ascorbate in collection vial, 5 mg/mL ascorbate pH 6 in FPV
  RCP: 98%
10 hours, pH 4.5
  % RCP: 98%
10 hours, pH 5.5
  % RCP: 97%
10 hours, pH 7.0
  % RCP: 97%
[13]
  18F-DCFPyL (% RCP): 100.00%
  Free F-18: 0.00%
[14]
  18F-DCFPyL (% RCP): 100.00%
  Free F-18: 0.00%
[15]
  18F-DCFPyL (% RCP): 99.68%
  Free F-18: 0.32%
T = 0, 1 mg/mL sodium ascorbate, 20% ethanol, 111.5 mCi/mL at EOS
  Free F-18: 0.57%
[16]
  18F-DCFPyL (% RCP): 100.00%
  Free F-18: 0.00%
T = 0, 20 mg/mL sodium citrate, 20% ethanol, 104.8 mCi/mL at EOS
  Free F-18: 10.22%
[17]
  RT 3.4 radioactive impurity: <MPA
  RT 3.7 radioactive impurity: <MPA
[18]
  18F-DCFPyL (% RCP): 100.00%
  Free F-18: 0.00%
T = 0, 50 mg/mL ascorbic acid pH 5.8, 20% ethanol, 139.7 mCi/mL at EOS, MPA = 0.25% of main peak
  RT 4.8 radioactive impurity: <MPA
[19]
  18F-DCFPyL (RCP): 99.7% and 99.73%
  Free 18F: < LLQ
  RT 5.0 radioactive impurity: 0.27%
T = 0 hr, 50 mg/mL ascorbic acid pH 5.8 in final product vial, 20% ethanol, 110 mCi/mL at EOS, listed as [^18F]DCFPYL
  18F-DCFPyL (RCP): 99.7%
[20]
  18F-DCFPyL (RCP): 99.7% and 99.71%
  Free 18F: 0.29%
T = 0 hr, 100 mg/mL ascorbic acid pH 2.0, 256 mCi/mL at EOS, listed as [^18F]DCFPYL
  18F-DCFPyL (RCP): 99.7%
[21]
  18F-DCFPyL (RCP): 99.31%
  Free F-18: 0.23%
  RT 5.0 radioactive impurity: 0.46%
[22]
  18F-DCFPyL (RCP): 98.75%
  Free F-18: 0.91%
  RT 5.0 radioactive impurity: 0.34%
[23]
  18F-DCFPyL (RCP): 97.56%
  Free F-18: 2.10%
  RT 5.0 radioactive impurity: 0.34%
[24]
  18F-DCFPyL (RCP): 98.37%
  Free F-18: 1.63%
[25]
  18F-DCFPyL (RCP): 94% and 94.17%
  Free F-18: 4.68%
  RT 5.0 radioactive impurity: 0.50%
  RT 5.9 radioactive impurity: 0.64%
T = 0 hr, control without ascorbic acid, 36% ethanol in saline, 147 mCi/mL at EOS, listed as [^18F]DCFPYL
  18F-DCFPyL (RCP): 94%
T = 0.5, 5 mg/mL sodium ascorbate, 20% ethanol, 114.6 mCi/mL at EOS
  Free F-18: 0.39%
[26]
  18F-DCFPyL (% RCP): 100.00%
  Free F-18: 0.00%
[27]
  18F-DCFPyL (% RCP): 99.75%
  Free F-18: 0.25%
[28]
  18F-DCFPyL (% RCP): 99.72%
  Free F-18: 0.28%
